Results: US11590116B2 (THERAVANCE BIOPHARMA R&D IP, LLC, priority 2019, dated 2023)

Legend:
[1] = molecular target: T1, recombinant human ALK5 (TGF-βR1) protein (Homo sapiens, UniProt P36897); experiment: Biochemical ALK5 (TGF-βR1) assay to measure pKi (LANCE Ultra ULight kinase assay); details: apparent pKi from pIC50 by Cheng-Prusoff, read-out: ALK5 pKi (converted)
T1 construct: purchased Life Technologies PR9075A
T1 sequence (P36897 34-503): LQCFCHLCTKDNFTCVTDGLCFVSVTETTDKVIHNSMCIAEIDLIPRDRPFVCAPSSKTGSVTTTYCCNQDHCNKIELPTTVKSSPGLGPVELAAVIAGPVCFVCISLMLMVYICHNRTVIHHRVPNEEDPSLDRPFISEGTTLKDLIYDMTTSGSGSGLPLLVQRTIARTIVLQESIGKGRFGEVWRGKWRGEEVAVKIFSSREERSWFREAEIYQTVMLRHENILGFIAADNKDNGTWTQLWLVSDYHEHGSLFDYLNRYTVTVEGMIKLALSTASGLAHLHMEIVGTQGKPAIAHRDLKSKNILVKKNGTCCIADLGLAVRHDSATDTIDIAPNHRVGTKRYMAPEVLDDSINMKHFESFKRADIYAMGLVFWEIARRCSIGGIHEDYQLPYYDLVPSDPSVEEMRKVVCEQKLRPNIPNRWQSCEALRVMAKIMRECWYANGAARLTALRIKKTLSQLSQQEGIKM
In short: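 Compounds (10 μM to 25 pM) preincubated 60 minutes at room temperature with enzyme, then reaction run 60 minutes at 37° C with ATP added as 125 μM (5× final). Stopped with EDTA plus Eu-anti-phospho-Topoisomerase 2-alpha (Thr1342) antibody, TR-FRET read at 665 nm; pIC50 converted to pKi via Cheng-Prusoff.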

[2] = tested on: TGF-β-stimulated SMAD3 phosphorylation in BEAS-2B cells; experiment: Cellular ALK5 potency assay, inhibition of TGF-β stimulated pSMAD3 formation in BEAS-2B cells; assay type: cell-based; details: Homo sapiens; inhibition of TGF-β stimulated pSMAD3 formation, BEAS-2B cells; read-out: BEAS2B pIC50 (converted)
In short: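 BEAS-2B human lung epithelial cells pre-treated 1 h at 37° C with compound in HBSS/25 mM HEPES/1% BSA, then stimulated 30 min with 10 ng/mL TGF-β (final). Lysates assayed for pSMAD3 by AlphaLISA; pIC50 from dose-dependent change versus stimulated untreated cells.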

| Ki [1] | Structure (SMILES) | IC50 [2] |
| --- | --- | --- |
| < 0.0316 nM | CC(=O)N[C@@H]1CC=C(c2cnc3ccc(-c4nc[nH]c4-c4cccc(C)n4)cc3c2)CC1 [Compound 380, N-[(1S)-4-[6-[5-(6-methyl-2-pyridyl)-1H-imidazol-4-yl]-3-quinolyl]cyclohex-3-en-1-yl]acetamide] | < 20 nM |
| < 0.0316 nM | CNCCn1cc(-c2cnc3ccc(-c4c[nH]nc4-c4cccc(C)n4)nc3c2OC)cn1 [Compound 127, 2-[4-[4-methoxy-6-[3-(6-methyl-2-pyridyl)-1H-pyrazol-4-yl]-1,5-naphthyridin-3-yl]pyrazol-1-yl]-N-methyl-ethanamine] | 25.1 to 158 nM |
| 0.0398 to 0.316 nM | Cc1cccc(-c2n[nH]cc2-c2ccc3ncc(-c4cn5c(n4)CN(CCN)CC5)cc3n2)n1 [Compound 427, 2-[2-[6-[3-(6-methyl-2-pyridyl)-1H-pyrazol-4-yl]-1,5-naphthyridin-3-yl]-6,8-dihydro-5H-imidazo[1,2-a]pyrazin-7-yl]ethanamine] | 200 to 1260 nM |
| 0.0398 to 0.316 nM | Cc1cccc(-c2n[nH]cc2-c2ccc3ncc(-c4nnn5c4CNCC5)cc3n2)n1 [Compound 130, 2-[3-(6-methyl-2-pyridyl)-1H-pyrazol-4-yl]-7-(4,5,6,7-tetrahydrotriazolo[1,5-a]pyrazin-3-yl)-1,5-naphthyridine] | 25.1 to 158 nM |
| 3.98 to 31.6 nM | Cc1cccc(-c2n[nH]cc2-c2ccc3nccc(N(C)CC(=O)N4CCOCC4)c3n2)n1 [Compound 836, 2-[methyl-[6-[3-(6-methyl-2-pyridyl)-1H-pyrazol-4-yl]-1,5-naphthyridin-4-yl]amino]-1-morpholino-ethanone] | 200 to 1260 nM |
| < 0.0316 nM | CNCCn1cc(-c2cnc3ccc(-c4nc[nH]c4-c4ccc(F)c(C)n4)cc3c2)cn1 [Compound 401, 2-[4-[6-[5-(5-fluoro-6-methyl-2-pyridyl)-1H-imidazol-4-yl]-3-quinolyl]pyrazol-1-yl]-N-methyl-ethanamine] | 25.1 to 158 nM |
| 0.398 to 3.16 nM | Cc1cccc(-c2[nH]cnc2-c2ccc3ncc(C(=O)OC[C@@H]4CCCCN4)cc3c2)n1 [Compound 883, (S)-piperidin-2-ylmethyl 6-(5-(6-methylpyridin-2-yl)-1H-imidazol-4-yl)quinoline-3-carboxylate] | 25.1 to 158 nM |
| 0.0398 to 0.316 nM | Cc1cccc(-c2n[nH]cc2-c2ccc3nccc(-c4cnoc4)c3n2)n1 [Compound 832, 4-[6-[3-(6-methyl-2-pyridyl)-1H-pyrazol-4-yl]-1,5-naphthyridin-4-yl]isoxazole] | 25.1 to 158 nM |
| 0.398 to 3.16 nM | CCOC(=O)CN1CCN(Cc2ccnc3ccc(-c4c[nH]nc4-c4cccc(C)n4)nc23)CC1 [Compound 821, ethyl 2-[4-[[6-[3-(6-methyl-2-pyridyl)-1H-pyrazol-4-yl]-1,5-naphthyridin-4-yl]methyl]piperazin-1-yl]acetate] | 25.1 to 158 nM |
| 0.0398 to 0.316 nM | CNC(=O)[C@@H]1CN(c2cnc3ccc(-c4nc[nH]c4-c4cccc(C)n4)cc3c2)CCN1 [Compound 384, (2S)-N-methyl-4-[6-[5-(6-methyl-2-pyridyl)-1H-imidazol-4-yl]-3-quinolyl]piperazine-2-carboxamide] | 200 to 1260 nM |
| < 0.0316 nM | Cc1cccc(-c2n[nH]cc2-c2ccc3ncc(C4=CCC(NCc5ccccc5)CC4)cc3n2)n1 (centres unmarked) [Compound 502, N-benzyl-4-[6-[3-(6-methyl-2-pyridyl)-1H-pyrazol-4-yl]-1,5-naphthyridin-3-yl]cyclohex-3-en-1-amine] | 25.1 to 158 nM |
| < 0.0316 nM | Cc1cccc(-c2[nH]cnc2-c2ccc3ncc(C4=CCC(N)CC4)cc3c2)n1 (centres unmarked) [Compound 196, 4-[6-[5-(6-methyl-2-pyridyl)-1H-imidazol-4-yl]-3-quinolyl]cyclohex-3-en-1-amine] | < 20 nM |
| 0.0398 to 0.316 nM | Cc1cccc(-c2[nH]ncc2-c2ccc3ncc(C(=O)O[C@H]4CC[C@](C)(N)CC4)cc3c2)n1 [Compound 1196, (4-amino-4-methyl-cyclohexyl) 6-[5-(6-methyl-2-pyridyl)-1H-pyrazol-4-yl]quinoline-3-carboxylate] | < 20 nM |
| 0.0398 to 0.316 nM | Cc1cccc(-c2n[nH]cc2-c2ccc3ncc(NCC4CN5CCN4CC5)cc3n2)n1 (centres unmarked) [Compound 566, N-(1,4-diazabicyclo[2.2.2]octan-2-ylmethyl)-6-[3-(6-methyl-2-pyridyl)-1H-pyrazol-4-yl]-1,5-naphthyridin-3-amine] | 25.1 to 158 nM |
| 0.0398 to 0.316 nM | COC(=O)CNc1cnc2ccc(-c3nc[nH]c3-c3cccc(C)n3)cc2c1 [Compound 1229, methyl 2-[[6-[5-(6-methyl-2-pyridyl)-1H-imidazol-4-yl]-3-quinolyl]amino]acetate] | 25.1 to 158 nM |
| 0.0398 to 0.316 nM | Cc1cccc(-c2n[nH]cc2-c2ccc3ncc(-c4nnn5c4CNCC5)cc3c2)n1 [Compound 343, 6-[3-(6-methyl-2-pyridyl)-1H-pyrazol-4-yl]-3-(4,5,6,7-tetrahydrotriazolo[1,5-a]pyrazin-3-yl)quinoline] | 25.1 to 158 nM |
| 0.0398 to 0.316 nM | Cc1cccc(-c2[nH]cnc2-c2ccc3ncc(C4=CCC(NC(=O)N5CCNCC5)CC4)cc3c2)n1 (centres unmarked) [Compound 153, N-[4-[6-[5-(6-methyl-2-pyridyl)-1H-imidazol-4-yl]-3-quinolyl]cyclohex-3-en-1-yl]piperazine-1-carboxamide] | 200 to 1260 nM |
| 0.0398 to 0.316 nM | Cc1cccc(-c2[nH]cnc2-c2ccc3ncc(-c4ncc(C(=O)OC5CCNCC5)cn4)cc3c2)n1 [Compound 1101, 4-piperidyl 2-[6-[5-(6-methyl-2-pyridyl)-1H-imidazol-4-yl]-3-quinolyl]pyrimidine-5-carboxylate] | 25.1 to 158 nM |
| 0.0398 to 0.316 nM | Cc1cccc(-c2[nH]cnc2-c2ccc3ncc(C4=CCN(C(=O)C5CCNCC5)CC4)cc3c2)n1 [Compound 778, [4-[6-[5-(6-methyl-2-pyridyl)-1H-imidazol-4-yl]-3-quinolyl]-3,6-dihydro-2H-pyridin-1-yl]-(4-piperidyl)methanone] | 25.1 to 158 nM |
| 0.0398 to 0.316 nM | Cc1cccc(-c2[nH]cnc2-c2ccc3ncc(-c4cc(C(=O)O)ccn4)cc3c2)n1 [Compound 1137, 2-[6-[5-(6-methyl-2-pyridyl)-1H-imidazol-4-yl]-3-quinolyl]pyridine-4-carboxylic acid] | 1580 to 10000 nM |
| 0.0398 to 0.316 nM | Cc1nc(-c2n[nH]cc2-c2ccc3ncc(N4CCCNCC4)cc3n2)ccc1F [Compound 318, 7-(1,4-diazepan-1-yl)-2-[3-(5-fluoro-6-methyl-2-pyridyl)-1H-pyrazol-4-yl]-1,5-naphthyridine] | 25.1 to 158 nM |
| < 0.0316 nM | Cc1cccc(-c2[nH]cnc2-c2ccc3ncc(-c4cc(C(=O)O[C@@H]5CCNC5)cs4)cc3c2)n1 [Compound 1105, [(3R)-pyrrolidin-3-yl] 5-[6-[5-(6-methyl-2-pyridyl)-1H-imidazol-4-yl]-3-quinolyl]thiophene-3-carboxylate] | 25.1 to 158 nM |
| 0.0398 to 0.316 nM | Cc1cccc(-c2nnn(Cc3ccccc3)c2-c2ccc3ncc(-c4cn[nH]c4)cc3n2)n1 [Compound 170, 2-[3-benzyl-5-(6-methyl-2-pyridyl)triazol-4-yl]-7-(1H-pyrazol-4-yl)-1,5-naphthyridine] | 25.1 to 158 nM |
| 0.0398 to 0.316 nM | COc1[nH]nc(-c2cccc(C)n2)c1-c1ccc2ncc(Br)cc2n1 [Compound 42, 7-bromo-2-(5-methoxy-3-(6-methylpyridin-2-yl)-1H-pyrazol-4-yl)-1,5-naphthyridine] | 25.1 to 158 nM |
| 0.0398 to 0.316 nM | Cc1cccc(-c2[nH]cnc2-c2ccc3ncc(Nc4ccc(N5CCN(C(C)C)CC5)cn4)cc3n2)n1 [Compound 695, N-[5-(4-isopropylpiperazin-1-yl)-2-pyridyl]-6-[5-(6-methyl-2-pyridyl)-1H-imidazol-4-yl]-1,5-naphthyridin-3-amine] | 25.1 to 158 nM |
| 0.0398 to 0.316 nM | Cc1cccc(-c2[nH]cnc2-c2ccc3ncc(-c4csc(C(=O)OC[C@@H]5CCC[C@H](N)C5)c4)cc3c2)n1 (racemic) [Compound 1197, [rac-(1R,3S)-3-aminocyclohexyl]methyl 4-[6-[5-(6-methyl-2-pyridyl)-1H-imidazol-4-yl]-3-quinolyl]thiophene-2-carboxylate] | 25.1 to 158 nM |
| 0.0398 to 0.316 nM | Cc1cccc(-c2n[nH]cc2-c2ccc3ncc(N4CCCNCC4)cc3c2)n1 [Compound 580, 3-(1,4-diazepan-1-yl)-6-[3-(6-methyl-2-pyridyl)-1H-pyrazol-4-yl]quinoline] | 25.1 to 158 nM |

| Structure (SMILES) | Ki [1] | IC50 [2] |
| --- | --- | --- |
| CCN1CCC(N(C)c2cnc3ccc(-c4c[nH]nc4-c4cccc(C)n4)nc3c2)CC1 [Compound 662, N-(1-ethyl-4-piperidyl)-N-methyl-6-[3-(6-methyl-2-pyridyl)-1H-pyrazol-4-yl]-1,5-naphthyridin-3-amine] | 0.0398 to 0.316 nM | 25.1 to 158 nM |
